From patent publication US7618984B2, “Sulfonamide compound” (Asahi Kasei Pharma Corporation, priority 2005, dated 2009)
Structures can show the parent of a compound that is named as a salt.

Key:
[1] = system: rabbit intraocular pressure; assay: Rabbit intraocular pressure reduction enhancing action, combination with timolol maleate (Test Example 6-2); format: in vivo, Japanese white rabbit; conditions: 0.01 weight % 19-1 compound aqueous solution and/or timolol maleate (Timoptol), 50 μL; difference relative to the control group, 1, 2 and 4 hours
Experimental: As a test compound, the 19-1 compound was dissolved in physiological saline, and the solution was neutralized by addition of sodium hydroxide (pH 7.0 to 8.0) to prepare a 0.01 weight % aqueous solution (19-1 compound aqueous solution). As a drug for combination use, timolol maleate (trade name: Timoptol, Santen Pharmaceutical) was used as an adrenergic receptor β blocker, as the marketed formulation as it was.
A Japanese white rabbit having a body weight of about 2 kg was placed in a positioner and naturalized for one week before the experiment. An opthalmologic local anesthesant (Benoxil) was administered to both eyes, and then intraocular pressure before instillation was measured by using a tonometer (Classic 30, Solan). […] The intraocular pressure thereafter was measured for each group 1, 2 and 4 hours after the second administration of the test compound, and the difference of the measured values at each measurement time for the each group and the control group was considered an intraocular pressure reduction value of each group. The largest difference of the intraocular pressure values relative to the control group among those of the measured values of the measurement times was considered the maximum intraocular pressure reduction value (max ΔIOP) of each drug group.

[2] = system: rabbit intraocular pressure; assay: Rabbit intraocular pressure reduction enhancing action, combination use (Test Example 6-1); format: in vivo, Japanese white rabbit; conditions: 50 μL, difference of left and right eyes, 2, 4 and 6 hours
Experimental: However, the effect is not limited to the 19-1 compound, and the ophthalmic solution concentration of the 19-1 compound is not limited to those used in this test example. Moreover, as for the test compound used for combination use, similar effect can be obtained also with the compounds of the present invention represented with the example numbers mentioned in Test Example 2.
As a test compound, the 19-1 compound was dissolved in physiological saline, and the solution was neutralized by addition of sodium hydroxide (pH 7.0 to 8.0) to prepare a 0.01 weight % aqueous solution (19-1 compound aqueous solution). As the drugs for combination use, isopropyl unoprostone (trade name: Rescula, Santen Pharmaceutical) was used as a prostaglandin-related drug, and brinzolamide hydrochloride (trade name: Azopt, Alcon Japan) was used as […], as the marketed formulations as they were.
A Japanese white rabbit having a body weight of about 2 kg was placed in a positioner and naturalized for one week before the experiment. An opthalmologic local anesthesant (Benoxil) was administered to both eyes, and then intraocular pressure before instillation was measured by using a tonometer (Classic 30, Solan). A test aqueous solution or the drug for combination use was administered to the left eye, and the right eye was not treated (control eye). The test groups consisted of (1) control group, (2) group instilled only with the 19-1 compound aqueous solution (single drug group 1), (3) group instilled only with the drug for combination use (single drug group 2), and (4) group instilled with the drug for combination use and the 19-1 compound aqueous solution (combination use group), and six rabbits were used for each group. As for the rabbits of these groups, 50 μL of physiological saline was first instilled to the control group, single drug group 1, and single drug group 2, and the drug for combination use was first instilled in the same volume to the combination use group. […] The intraocular pressure thereafter was measured for each group 2, 4 and 6 hours after the second administration of the test compound, and the difference of the measured values for the left and right eyes at each measurement time was considered an intraocular pressure reduction value of each group. The largest difference of the intraocular pressure values for the left and right eyes among those of the measured values of the measurement times was considered the maximum intraocular pressure reduction value (max ΔIOP) of each drug group.

## CC(C)(C)NC[C@H](O)COc1nsnc1N1CCOCC1 [timolol maleate, reference compound]
[1]
  Max ΔIOP (maximum intraocular pressure reduction value), Table 4: 1.9 mmHg

## CCN[C@H]1CN(CCCOC)S(=O)(=O)c2sc(S(N)(=O)=O)cc21 [brinzolamide hydrochloride, reference compound]
[2]; 0.01 weight % 19-1 compound aqueous solution and/or brinzolamide hydrochloride (Azopt)
  Max ΔIOP (maximum intraocular pressure reduction value), Table 2: 2.3 mmHg

## CCCCCCCC(=O)CC[C@@H]1[C@@H](C/C=C\CCCC(=O)OC(C)C)[C@@H](O)C[C@H]1O [isopropyl unoprostone, reference compound]
[2]; 0.01 weight % 19-1 compound aqueous solution and/or isopropyl unoprostone (Rescula)
  Max ΔIOP (maximum intraocular pressure reduction value), Table 3: 4.4 mmHg
